Where two headings read alike, the source gives them in different places. Ends that are not written are not given here.
Columns and labels:
KDR [1] = assay: Competition assay of 125I-VEGF binding to CHO-KDR cells; conditions: for efficiency of V1 analogues in displacing 125I-VEGF165 from CHO-KDR cells: displacement curves, FIGS. 10-11; for inhibitory effect on VEGF binding to KDR (CHO-KDR cells): fixed peptide concentration 2.1×10^−4 M, heparin present
Experimental: Competition assay of binding to CHO-KDR cells. CHO-KDR cells were seeded in 24-well plates at a density of 5×10^5 cells/well. After 24 h, subconfluent plates were transferred at 4 C., and all subsequent operations were done at 4 C. […] The amount of radioactivity bound to the cells was counted in a gamma counter (LKB 1261 Multigamma). The receptor affinity and the number of binding sites per cell were determined by Scatchard's analysis (Scatchard, 1986).

[2] = test system: VEGF-R2-VEGF165 and NP1-VEGF165 complexes; assay: Cross linking of I125 VEGF165 to HUV-EC cells; type: binding, human; conditions: V1 2.4×10−4M and 4.8×10−4M, I125 VEGF165 160 pM
Excerpt: FIG. 19: Cross linking of I125 VEGF165 (160 pM) to HUV-EC cells. 1: Total binding. […] 3: V1, (2.4×10−4M). 4: V1, (4.8×10−4M).
The 240-260 kDa complex could correspond to the […] complex and the 160-170 kDa complex could correspond to the NP1 -VEGF 165 complex. The labeling of the two complexes was decreased in the presence of the V1 peptide. (FIG. 19)

KDR [3] = molecular target: T1, KDR (Homo sapiens, UniProt P35968); assay: ELISA of phage-displayed peptide binding to CHO-KDR cells; conditions: clones selected by anti-VEGF antibody binding, 10^12 pfu/ml
T1 construct: expressed in transfected cells; host or cells: glycosaminoglycan-deficient pgsA 745 CHO cells, psV-7d expression vector
T1 sequence (P35968 20-1356): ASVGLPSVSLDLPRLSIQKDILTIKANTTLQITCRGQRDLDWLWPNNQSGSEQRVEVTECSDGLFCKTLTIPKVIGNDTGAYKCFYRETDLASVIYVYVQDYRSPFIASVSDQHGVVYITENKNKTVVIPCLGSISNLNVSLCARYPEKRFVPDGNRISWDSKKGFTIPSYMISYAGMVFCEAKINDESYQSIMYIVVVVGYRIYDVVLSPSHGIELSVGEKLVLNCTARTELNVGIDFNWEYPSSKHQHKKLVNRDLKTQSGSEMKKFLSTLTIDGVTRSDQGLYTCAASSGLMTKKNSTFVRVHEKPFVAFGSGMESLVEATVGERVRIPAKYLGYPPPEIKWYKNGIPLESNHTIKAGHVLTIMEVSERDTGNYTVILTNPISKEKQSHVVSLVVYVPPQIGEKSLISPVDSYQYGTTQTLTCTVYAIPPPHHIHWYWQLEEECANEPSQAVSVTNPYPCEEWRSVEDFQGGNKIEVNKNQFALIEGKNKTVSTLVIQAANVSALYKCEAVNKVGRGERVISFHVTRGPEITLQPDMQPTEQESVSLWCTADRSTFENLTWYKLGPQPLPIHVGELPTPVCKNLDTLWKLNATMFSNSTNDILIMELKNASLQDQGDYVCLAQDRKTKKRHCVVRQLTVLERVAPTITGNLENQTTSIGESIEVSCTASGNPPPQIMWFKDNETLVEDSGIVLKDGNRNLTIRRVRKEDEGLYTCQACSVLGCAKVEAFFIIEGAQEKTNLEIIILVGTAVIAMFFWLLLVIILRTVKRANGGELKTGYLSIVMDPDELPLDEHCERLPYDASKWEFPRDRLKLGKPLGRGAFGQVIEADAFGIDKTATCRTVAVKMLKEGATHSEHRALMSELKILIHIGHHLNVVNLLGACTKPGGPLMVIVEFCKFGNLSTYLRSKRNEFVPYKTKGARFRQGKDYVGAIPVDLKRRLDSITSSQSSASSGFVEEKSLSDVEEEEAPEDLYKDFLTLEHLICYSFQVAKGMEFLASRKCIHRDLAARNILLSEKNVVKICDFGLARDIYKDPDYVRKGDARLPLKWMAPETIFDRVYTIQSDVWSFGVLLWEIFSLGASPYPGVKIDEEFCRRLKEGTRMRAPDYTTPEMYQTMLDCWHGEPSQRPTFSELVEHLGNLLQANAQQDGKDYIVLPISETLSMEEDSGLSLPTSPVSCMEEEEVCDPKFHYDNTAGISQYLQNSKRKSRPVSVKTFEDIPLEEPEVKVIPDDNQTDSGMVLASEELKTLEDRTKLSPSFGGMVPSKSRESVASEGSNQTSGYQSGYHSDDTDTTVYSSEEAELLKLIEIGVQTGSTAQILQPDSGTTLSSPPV
Experimental: Exponentially growing CHO-KDR cells were seeded in 96-well microtiter plates at 7×10^4 cells/well and left overnight at 37 C. Cells were fixed with paraformaldehyde (4% in PBS) for 15 min at room temperature and washed with PBS. Wells were then filled with PBS-Glycine 0.2%, kept for 15 min at room temperature and then washed with PBS. Phage particles (10^12 or 10^13/Ml) were added to each well and incubated 2 h at room temperature. Wells were washed with PBS and the amount of bound phage was detected with peroxidase-conjugated anti-M13 phage serum (Pharmacia Biotech, Uppsala, Sweden).

HUAE cells [4] = assay: KDR anti-idiotypic antibody (AIA)-induced HUAE cell proliferation; type: cell-based, human; conditions: 100 ng/ml KDR anti-idiotypic antibodies, peptide daily, 5 days
Experimental: (§1) Cell proliferation assay. To test the anti-VEGF antibody neutralizing effect, CPAE cells were plated into 96-well tissue culture plates at a density of 500 cells/well. After 24 h, various concentrations of anti-VEGF antibody were added. The cells were cultured for an additional day and cell proliferation was measured using the Cell proliferation ELISA kit from Boerhinger (Indianapolis, Ind.). Cells were incubated with BrdU for 4 h at 37 C., and the incorporation of BrdU in newly synthetized DNA was quantified by immunoassay as described by the manufacturer. To investigate the peptide effect, after 24 h of CPAE cell growth, 2.1×10^−4M synthetic peptides were added daily to the culture medium. Cell proliferation was assessed after 24 h, 48 h or 72 h as described above. […] Cells were trypsinized and counted after 5 days using a Coulter counter.

[5] = test system: VEGF-induced corneal angiogenesis; assay: Rabbit corneal pocket assay; type: in vivo; conditions: day 12; for effect on VEGF-induced corneal angiogenic response: implant with 2 pmol VEGF and 30 nmol peptide; for corneal neovascularization by peptide alone vs vehicle: implant with 30 nmol peptide, no VEGF
Experimental: Rabbit corneal pocket assay. […] These implants were inserted in New Zealand rabbit (Elevage du Trottis, Esperce, France) corneal stroma 2 mm away from the limbus (Favard et al, 1991). Neovascularization was assessed on day 12 by direct examination with a slit lamp and scored according to a 4 grade scale (grade 1: less than 1 mm long neovessels, grade 2: 1 mm long neovessels, grade 3: 1 to 2 mm long neovessels, grade 4: neovessels extending to the implant). Means and standard deviations were determined on 8 implant groups for each condition.

CPAE cells = assay: CPAE cell proliferation assay (BrdU incorporation); type: cell-based, calf
Experimental: as §1

neuropilin 1 (NP1) = molecular target: T2, neuropilin 1 (NP1) (Homo sapiens, UniProt O14786); assay: Displacement of 125I-VEGF165 binding to MDA-MB 231 cells; conditions: cells without VEGF-R2, expressing NP1; read-out: CI 50 of inhibition of 125I VEGF165 binding to MDA-MB cells (converted)
T2 construct: endogenous in cells; host or cells: MDA-MB 231 breast tumoral cell line
T2 sequence (O14786 22-923): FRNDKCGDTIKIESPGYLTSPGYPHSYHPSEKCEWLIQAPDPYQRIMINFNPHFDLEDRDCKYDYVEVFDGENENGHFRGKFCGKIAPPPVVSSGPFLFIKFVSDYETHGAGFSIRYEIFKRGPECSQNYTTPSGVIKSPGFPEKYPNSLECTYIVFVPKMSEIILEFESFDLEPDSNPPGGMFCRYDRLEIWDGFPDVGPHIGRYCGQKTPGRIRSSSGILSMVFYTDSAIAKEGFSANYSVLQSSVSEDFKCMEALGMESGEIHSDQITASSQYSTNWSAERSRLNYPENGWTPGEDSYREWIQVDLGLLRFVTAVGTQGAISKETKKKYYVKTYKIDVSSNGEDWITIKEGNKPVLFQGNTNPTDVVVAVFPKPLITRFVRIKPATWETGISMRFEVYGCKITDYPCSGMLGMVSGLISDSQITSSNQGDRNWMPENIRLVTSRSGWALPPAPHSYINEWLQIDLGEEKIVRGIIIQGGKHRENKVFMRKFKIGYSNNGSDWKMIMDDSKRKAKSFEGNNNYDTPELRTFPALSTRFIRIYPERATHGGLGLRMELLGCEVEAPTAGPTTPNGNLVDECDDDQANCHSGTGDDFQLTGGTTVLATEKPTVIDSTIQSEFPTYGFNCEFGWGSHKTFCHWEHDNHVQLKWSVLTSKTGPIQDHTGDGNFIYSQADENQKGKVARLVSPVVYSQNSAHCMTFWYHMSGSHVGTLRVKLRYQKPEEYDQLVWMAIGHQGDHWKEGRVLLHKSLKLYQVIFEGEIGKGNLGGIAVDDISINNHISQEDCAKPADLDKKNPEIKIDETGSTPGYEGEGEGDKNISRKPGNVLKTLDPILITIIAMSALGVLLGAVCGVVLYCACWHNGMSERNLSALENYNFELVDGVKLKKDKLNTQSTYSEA
Excerpt: (§2) Experimental conditions are indicated in the legend of FIG. 10.

HUAE cells [6] = assay: VEGF-induced HUAE cell proliferation; type: cell-based, human; conditions: 2 ng/ml VEGF, peptide daily, counted after 5 days
Experimental: as §1

HUVEC = assay: VEGF165-induced HUVEC proliferation; type: cell-based, human; conditions: V1 400 μg/ml, various VEGF165 concentrations, 96 hours
Experimental: FIG. 13 Effect of V1 (400 μg/ml) VEGF165 induced HUVEC proliferation. Various concentrations of VEGF165 were added during 96 hours.
The inhibitory effect of V1 on Human umbilical vein endothelial cell (HUVEC) in primary culture.

VEGF-R2 on HUV-EC cells = type: binding; conditions: for Kd: Scatchard analysis
Excerpt: as §2
(see FIGS. 16A, B and C).

AAWLPPK [A9, V1 analogue, substitution of the C-terminal arginine by lysine]
efficiency of V1 analogues in displacing 125I-VEGF165 from CHO-KDR cells (KDR [1]): reduced the peptide efficiency

ATALPP [A10]
efficiency of V1 analogues in displacing 125I-VEGF165 from CHO-KDR cells (KDR [1]): significantly reduced the peptide efficiency

ATWLPPA [A7]
efficiency of V1 analogues in displacing 125I-VEGF165 from CHO-KDR cells (KDR [1]): totally devoid of activity

ATWLPPR [V1, ATWLPPR]
labeling of the two 125I-VEGF-receptor complexes [2]: decreased | ELISA signal of phage clones on CHO-KDR cells (KDR [3]): best reactivities | inhibition of AIA-dependent HUAE cell proliferation (HUAE cells [4]): could suppress the AIA-dependent cell proliferation | effect on VEGF-induced corneal angiogenic response [5]: totally abolished | corneal neovascularization by peptide alone vs vehicle [5]: did not improve the generation of new blood vessels | reduction of CPAE cell proliferation (CPAE cells; 2.1×10^−4 M peptide, 24 h): 60% | effect on affinity of I125 VEGF165 for receptors of transfected CHO cells (Scatchard) (KDR [1]; V1 50 μg/ml): lowered | effect on heparin-dependent VEGF165 binding to transfected CHO cells (KDR [1]; V1 50 μg/ml): inhibited this heparin agonistic effect | inhibitory effect on VEGF binding to KDR (CHO-KDR cells) (KDR [1]): showed an inhibitory effect | IC50 (neuropilin 1 (NP1)): 45200 nM | inhibition of VEGF-induced HUAE cell proliferation (HUAE cells [6]): suppressed the mitogenic activity of VEGF in a dose dependent manner | inhibition of VEGF-induced HUVEC proliferation (HUVEC): inhibited by V1 in a non competitive manner | effect on VEGF binding to HUV-EC cells (VEGF-R2 on HUV-EC cells; V1 40 μg/ml, Scatchard): inhibited only the VEGF binding to high affinity receptors

Heparin [reference compound]
optimal heparin concentration for increasing VEGF binding to CHO-KDR cells (KDR [1]): 1.8 µg/mL

ILDNYKL [V5]
inhibition of AIA-dependent HUAE cell proliferation (HUAE cells [4]): unlike V5, V1 could suppress | effect on VEGF-induced corneal angiogenic response [5]: not modified | corneal neovascularization by peptide alone vs vehicle [5]: did not improve the generation of new blood vessels | effect on VEGF binding to CHO-KDR cells, various concentrations (KDR [1]; same conditions as V1 dose response, FIG. 5): did not modify VEGF binding | inhibition of VEGF-induced HUAE cell proliferation (HUAE cells [6]): no inhibitory effect

LPPNPTK [V6]
ELISA signal of phage clones on CHO-KDR cells (KDR [3]): best reactivities | inhibitory effect on VEGF binding to KDR (CHO-KDR cells) (KDR [1]): no effect on VEGF binding to KDR

SLPAHAR [K4]
effect on endothelial cell growth (words, discussion) (CPAE cells; in vitro): minor effect on endothelial growth

VEGF
Kd (VEGF-R2 on HUV-EC cells; read-out: Kd of I125 VEGF165 on HUV-EC cells, high affinity receptors): 0.117 nM | Kd (VEGF-R2 on HUV-EC cells; read-out: Kd of I125 VEGF165 on HUV-EC cells, second (lower affinity) receptors): 2.3 nM

— patent publication US6559126B2 (Institut Pasteur, priority 2000, dated 2003)
